“Also recorded” adds a separate entry of the source.
Legend:
[1] = test system: mice with experimental autoimmune encephalomyelitis; experiment: Experimental autoimmune encephalomyelitis (EAE) in mice; assay type: in vivo; details: for Paralysis / paralytic disease in EAE: paraparetic mice with EAE
Protocol: Paraparetic mice with experimental autoimmune encephalomyelitis were administered one dose of monodansyl cadaverine. […] Thus, diseases mediated in part by transglutaminase can be treated with transglutaminase inhibitors.
0.05 mM monodansyl cadaverine was injected intraperitoneally into one of two groups of mice. The injection was given on day 13 after induction of disease, marked in the FIG. by an arrow.
To obtain the data shown in FIG. 6, experimental autoimmune encephalitis (EAE) was induced in ten week old SJL female mice. EAE was induced by an injection of 4 mg of mouse spinal cord homogenate in 1 ml of CFA. The injections were given intradermally in three places (two places in the flanks and one in the neck). On the same day, day 1, and on day 2, an intraperitoneal injection of pertussis toxin was given. The mice were treated with different concentrations of mono dansyl cadaverine on day 10. One group was injected twice on days 7 and 10 with […] mono dansyl cadaverine.
The grading score for EAE is 0, normal; 1, mild paraparesis; 2, paraparesis; 3, severe paraparesis; 4, quadriparesis; 5, dead.

transglutaminase (TGase) = experiment: TGase assay on human brain extracts ([3H]putrescine incorporation into casein); assay type: biochemical; details: for TGase Activity + Casein + MDC / TGase Activity − Casein + MDC: 5 mM mono dansyl cadaverine, mean ± SEM, n = 2; for TGase Activity − Casein + MDC: no casein
Protocol: Each assay contained 80 μg of brain extract, 4 mg/ml N,N-dimethylated casein, 50 mM Tris (pH 8.0), 5 mM CaCl2, 5 mM dithiothreitol (DTT), and 0.37 mM putrescine (1:5, ^3 [H]putrescine:putrescine) in 80 μL. The reaction was incubated at 37° C. for 30 minutes. After it was washed in 500 μL of 10% trichloro acetic acid (TCA) and washed again in 100% ethanol, the reaction was resuspended in 220 μL of 0.1 M NaOH. The resuspended pellet was added to 10 ml of scintillation liquid. […] For lymphoid cells, 10^6 cells were suspended in 0.5 ml buffer for five minutes, then centrifuged at 1200×g for ten minutes.
Approximately 500 mg of brain tissue was homogenized in 2 ml of 10 mM Hepes (pH 7.4) containing 150 mM NaCl, 0.2 mg/ml leupeptin, 0.2 mg/ml aprotinin, 0.2 mg/ml pepstatin, and 0.5 mM phenylmethylsulfonyl fluoride (PMSF). The homogenate was centrifuged at 4° C. for ten minutes at 1000×g, and the supernatant was then centrifuged at 4° C. for ten minutes at 10,000×g to separate the cytoplasmic proteins. The remaining nuclear pellet was washed twice, for ten minutes each time, with the homogenization buffer at 4° C. at 1000×g, and then suspended in 1 ml of 10 mM Tris-Cl, 140 mM NaCl, 3 mM MgCl2, 0.5 mM PMSF, 0.1% sodium dodecyl sulfate (SDS), and 1% Nonylphenyl-polyethylene glycol (Nonidet P-40) (pH 7.4). The homogenate was spun at 4° C. for ten minutes at 8000×g. This procedure increased the level of beta-demn, a protein found more frequently in the cytoplasm than in the nucleus, enriching it 15.5-fold in the cytoplasm relative to the nucleus (Zhao et al, 1998).
This method for measuring brain transglutaminase was adapted from Folk and Cole (Folk et al, 1966). Casein serves as an excellent glutamine-containing protein substrate and […], while putrescine serves as the attacking nucleophile (Cooper et al, 1997). In the Huntington's Disease brain, in both the affected cortex andjin relatively unaffected areas like the cerebellum, which are affected in juvenile Huntington's Disease, transglutaminase activity was greater than in the corresponding areas of the control brain (HD cortex 14888±2864 cpm vs. normal cortex 6697±1410 cpm, mean ±1SEM, p<0.009 for HD cortex versus normal cortex; HD cerebellum 11221±2426 cpm vs. control cerebellum 2606±719 cpm, mean ±1SEM, p<0.001 for HD cerebellum versus control cerebellum.) Transglutaminase activity was also greater in extracts of nuclei from brains of Huntington's Disease patients than controls (HD brain cortical nuclear extract 6368±764 cpm vs. control brain cortical nuclear extract 2357±226 cpm, mean ±1SEM, Table 1).

[2] = biological target: T1, httQ23 (310 amino acids), P42858
T1 chain: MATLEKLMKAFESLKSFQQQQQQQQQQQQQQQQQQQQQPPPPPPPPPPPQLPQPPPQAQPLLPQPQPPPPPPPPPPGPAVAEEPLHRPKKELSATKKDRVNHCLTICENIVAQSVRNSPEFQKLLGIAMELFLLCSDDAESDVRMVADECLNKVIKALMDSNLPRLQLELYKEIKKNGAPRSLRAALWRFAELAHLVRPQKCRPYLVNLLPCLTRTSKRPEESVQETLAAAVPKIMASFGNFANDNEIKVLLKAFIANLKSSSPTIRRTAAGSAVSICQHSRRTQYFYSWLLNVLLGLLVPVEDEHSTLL

[3] = biological target: T2, httQ67 (135 amino acids), P42858
T2 chain: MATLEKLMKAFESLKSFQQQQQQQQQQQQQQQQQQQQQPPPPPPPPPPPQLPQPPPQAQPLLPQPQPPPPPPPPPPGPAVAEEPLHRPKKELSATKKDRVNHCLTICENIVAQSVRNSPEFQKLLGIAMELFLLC

[4] = biological target: T3, httQ41 (330 amino acids), P42858
T3 chain: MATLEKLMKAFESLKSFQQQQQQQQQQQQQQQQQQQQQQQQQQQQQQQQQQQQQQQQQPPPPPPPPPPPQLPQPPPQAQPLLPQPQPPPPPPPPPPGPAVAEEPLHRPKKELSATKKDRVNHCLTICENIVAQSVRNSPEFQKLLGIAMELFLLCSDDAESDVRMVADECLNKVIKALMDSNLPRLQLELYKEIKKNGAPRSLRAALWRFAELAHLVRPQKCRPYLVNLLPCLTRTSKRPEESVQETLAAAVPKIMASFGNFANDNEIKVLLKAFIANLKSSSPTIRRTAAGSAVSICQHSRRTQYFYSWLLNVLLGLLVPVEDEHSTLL

[5] = biological target: T4, httQ41 (100 amino acids; elsewhere given as 110 amino acids), P42858
T4 chain: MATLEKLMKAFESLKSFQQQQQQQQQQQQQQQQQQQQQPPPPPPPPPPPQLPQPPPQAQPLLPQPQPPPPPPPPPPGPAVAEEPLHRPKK

[6] = biological target: T5, httQ23 (90 amino acids), P42858
T5 chain: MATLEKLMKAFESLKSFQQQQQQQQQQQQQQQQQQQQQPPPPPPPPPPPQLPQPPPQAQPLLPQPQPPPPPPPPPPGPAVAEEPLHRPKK

CN(C)c1cccc2c(S(=O)(=O)NCCCCCN)cccc12 [monodansyl cadaverine]
Effect on EAE (FIG. 5), p compared to control ([1]; 0.05 mM injected intraperitoneally on day 13 after induction, following the second day of injection): significant influence (p=0.03 compared to control)
Mononuclear cell infiltration in brains by hematoxilin-eosin staining ([1]; FIG. 5 experiment, versus vehicle-injected controls): high levels of infiltration
Side effects ([1]; mice treated in vivo): no untoward side effects
Lymphocytic infiltration / accumulation of inflammatory lymphocytes in brain ([1]; mice with EAE, histology): prevented the accumulation of inflammatory lymphocytes in the brain; also recorded: reversed
Paralysis / paralytic disease in EAE [1]: reversed paralytic disease; also recorded: Ongoing paralysis was reversed
Disease status after treatment ([1]; paraparetic mice with EAE treated in vivo): apparently free of disease; also recorded: free of disease after treatment
Paralysis / paralytic disease in EAE ([1]; listed as monodensyl cadaverine): can reverse ongoing paralysis
TGase Activity + Casein + MDC (transglutaminase (TGase); Control Cerebellum extract): 83 ± 14 CPM
TGase Activity − Casein + MDC (transglutaminase (TGase); Control Cerebellum extract): 117 ± 30 CPM
TGase Activity + Casein + MDC (transglutaminase (TGase); Control Cortex extract): 63 ± 10 CPM
TGase Activity − Casein + MDC (transglutaminase (TGase); Control Cortex extract): 151 ± 39 CPM
TGase Activity + Casein + MDC (transglutaminase (TGase); HD Cerebellum extract): 186 ± 57 CPM
TGase Activity − Casein + MDC (transglutaminase (TGase); HD Cerebellum extract): 58 ± 13 CPM
TGase Activity + Casein + MDC (transglutaminase (TGase); HD Cortex extract): 94 ± 18 CPM
TGase Activity − Casein + MDC (transglutaminase (TGase); HD Cortex extract): 81 ± 17 CPM
Inhibition of enzymatic (transglutaminase) activity of brain extract (transglutaminase (TGase); cytosolic extract from HD and control brain, putrescine incorporation into casein): completely inhibited

B1: guinea pig liver TGase (Sigma) (protein)
chain: AEDLILERCDLQLEVNGRDHRTADLCRERLVLRRGQPFWLTLHFEGRGYEAGVDTLTFNAVTGPDPSEEAGTMARFSLSSAVEGGTWSASAVDQQDSTVSLLLSTPADAPIGLYRLSLEASTGYQGSSFVLGHFILLYNPRCPADAVYMDSDQERQEYVLTQQGFIYQGSAKFINGIPWNFGQFEDGILDICLMLLDTNPKFLKNAGQDCSRRSRPVYVGRVVSAMVNCNDDQGVLQGRWDNNYSDGVSPMSWIGSVDILRRWKDYGCQRVKYGQCWVFAAVACTVLRCLGIPTRVVTNFNSAHDQNSNLLIEYFRNESGEIEGNKSEMIWNFHCWVESWMTRPDLEPGYEGWQALDPTPQEKSEGTYCCGPVPVRAIKEGHLNVKYDAPFVFAEVNADVVNWIRQKDGSLRKSINHLVVGLKISTKSVGRDEREDITHTYKYPEGSEEEREAFVRANHLNKLATKEEAQEETGVAMRIRVGQNMTMGSDFDIFAYITNGTAESHECQLLLCARIVSYNGVLGPVCSTNDLLNLTLDPFSENSIPLHILYEKYGDYLTESNLIKVRGLLIEPAANSYVLAERDIYLENPEIKIRVLGEPKQNRKLIAEVSLKNPLPVPLLGCIFTVEGAGLTKDQKSVEVPDPVEAGEQAKVRVDLLPTEVGLHKLVVNFECDKLKAVKGYRNVIIGPA
aggregation into a high molecular weight polymer (35S gel) [2]: upon addition of transglutaminase, both httQ23 (310 amino acids) and httQ41 (330 amino acids) aggregate into a high molecular weight polymer within 30 minutes
aggregation into a high molecular weight polymer (35S gel) [3]: upon addition of transglutaminase, httQ23 (90 amino acids), httQ41 (100 amino acids), and httQ67 (135 amino acids) all aggregate into a high molecular weight polymer within 30 minutes
amount of aggregation compared to httQ23 (densitometry) [3]: 2-3 fold greater amount of aggregation of httQ41 and httQ67 compared to httQ23 at each concentration of transglutaminase
aggregation into a high molecular weight polymer (35S gel) [4]: upon addition of transglutaminase, both httQ23 (310 amino acids) and httQ41 (330 amino acids) aggregate into a high molecular weight polymer within 30 minutes
aggregation into a high molecular weight polymer (35S gel) [5]: upon addition of transglutaminase, httQ23 (90 amino acids), httQ41 (100 amino acids), and httQ67 (135 amino acids) all aggregate into a high molecular weight polymer within 30 minutes
amount of aggregation compared to httQ23 (densitometry) [5]: 2-3 fold greater amount of aggregation of httQ41 and httQ67 compared to httQ23 at each concentration of transglutaminase
aggregation into a high molecular weight polymer (35S gel) [6]: upon addition of transglutaminase, httQ23 (90 amino acids), httQ41 (100 amino acids), and httQ67 (135 amino acids) all aggregate into a high molecular weight polymer within 30 minutes

From patent publication US6794414B1, “Method and compositions for treating diseases mediated by transglutaminase activity” (Yeda Research and Development Co. Ltd., priority 1998, dated 2004)
